# System: Mycobacterium tuberculosis
# Test: Antimycobacterial activity against Mycobacterium tuberculosis H37Rv ATCC 27294 after 7 days by microplate alamar blue assay
# Assay type: functional
# Conditions: H37Rv ATCC 27294, 168 h
row,SMILES,MIC90 [µg/mL]
1,O=C(c1ccc([N+](=O)[O-])o1)N1CCc2ccccc21,0.482
2,O=C(c1ccc([N+](=O)[O-])o1)N1CC/C(=N\OCc2ccccc2)C1,0.291
3,O=C(c1ccc([N+](=O)[O-])o1)N1CCC(=NOCc2ccc(C(F)(F)F)cc2)CC1,> 32
4,CON=C1CCN(C(=O)c2ccc([N+](=O)[O-])o2)CC1,1.93
5,O=C(c1ccc([N+](=O)[O-])o1)N1CCC(=NOCc2ccc([N+](=O)[O-])cc2)CC1,> 32
6,CCON=C1CCN(C(=O)c2ccc([N+](=O)[O-])o2)CC1,14.1
7,O=C(c1ccc([N+](=O)[O-])o1)N1CCC(=NOCc2ccccc2)CC1,0.158
8,O=C(c1ccc([N+](=O)[O-])o1)N1CCC(=NOCc2ccc(OC(F)(F)F)cc2)CC1,> 32
9,CO/N=C1\CCN(C(=O)c2ccc([N+](=O)[O-])o2)C1,1.83
10,CCO/N=C1\CCN(C(=O)c2ccc([N+](=O)[O-])o2)C1,> 32
11,O=C(c1ccc([N+](=O)[O-])o1)N1CCC(=NOCc2ccc(F)cc2)CC1,5.88
12,NNC(=O)c1ccncc1 [ISONIAZID],0.035
13,CO[C@H]1/C=C/O[C@@]2(C)Oc3c(C)c(O)c4c(O)c(c(/C=N/N5CCN(C)CC5)c(O)c4c3C2=O)NC(=O)/C(C)=C\C=C\[C@H](C)[C@H](O)[C@@H](C)[C@@H](O)[C@@H](C)[C@H](OC(C)=O)[C@@H]1C [RIFAMPIN],0.059
